Experimental data: ChEMBL document CHEMBL1781986, “Structure-activity relationships of pyrrole based S-nitrosoglutathione reductase inhibitors: pyrrole regioisomers and propionic acid replacement” (Bioorg Med Chem Lett, 2011)
pIC50: −log10 of the molar value.

What was measured:
[1] = Inhibition of GSNOR expressed in Escherichia coli using GSNO by cuvette method
[2] = Inhibition of GSNOR expressed in Escherichia coli using GSNO by plate method
[3] = system: A549; assay: Cytotoxicity against human A549 cells; format: functional, cell-based
[4] = Oral bioavailability in BALB/c mouse at 10 mg/kg administered as single dose; format: ADME, organism-based; conditions: in vivo
[5] = Clearance in BALB/c mouse plasma at 2 mg/kg, iv or at 10 mg/kg, po administered as single dose; format: ADME, organism-based

SMILES	pIC50 [1]	other results
COc1ccc(-c2ccn(-c3ccc(C(=O)O)cc3)c2-c2ccc(C(N)=O)cc2C)cc1	6.07	
COc1ccc(-n2ccc(CCC(=O)O)c2-c2ccc(C(N)=O)cc2C)cc1		pIC50 [2]: 6.80
COc1ccc(-c2ccn(-c3ccc(O)c(C(=O)O)c3)c2-c2ccc(C(N)=O)cc2C)cc1	6.39	
COc1ccc(-c2ccn(CC(F)(F)C(=O)O)c2-c2ccc(C(N)=O)cc2C)cc1	5.82	
COc1cc(Cl)ccc1-n1ccc(CCC(=O)O)c1-c1ccc(C(N)=O)cc1C		pIC50 [2]: 7.31
COc1ccc(-c2ccn(-c3ccc(C(=O)O)c(F)c3)c2-c2ccc(C(N)=O)cc2C)cc1	5.80	
COc1ccc(-c2ccn(C(CC(=O)O)C(C)C)c2-c2ccc(C(N)=O)cc2C)cc1 (stereo not drawn)	4.01	
CCCC(CC(=O)O)n1ccc(-c2ccc(OC)cc2)c1-c1ccc(C(N)=O)cc1C (stereo not drawn)	4.20	
COc1ccc(-c2ccn(-c3ccc(S(N)(=O)=O)cc3)c2-c2ccc(C(N)=O)cc2C)cc1	4.55	
COc1ccc(-c2ccn(CC3(C(=O)O)CC3)c2-c2ccc(C(N)=O)cc2C)cc1	5.09	
COc1ccc(-c2ccn(CC(C)C(=O)O)c2-c2ccc(C(N)=O)cc2C)cc1 (stereo not drawn)	5.71	
COc1ccc(-c2ccn(-c3ccc(C(=O)O)c(Cl)c3)c2-c2ccc(C(N)=O)cc2C)cc1	5.46	
COc1cc(Cl)ccc1-c1ccc(CCC(=O)O)n1-c1ccc(C(N)=O)cc1C		pIC50 [2]: 7.27
COc1ccc(-c2ccn(-c3ccc(O)cn3)c2-c2ccc(C(N)=O)cc2C)cc1	5.52	
COc1ccc(-c2ccn(CC(O)C(=O)O)c2-c2ccc(C(N)=O)cc2C)cc1 (stereo not drawn)	4.63	
COc1ccc(-c2ccn(C(C)CC(=O)O)c2-c2ccc(C(N)=O)cc2C)cc1 (stereo not drawn)	4.85	
COc1ccc(-c2ccn(CCC(=O)O)c2-c2ccc(C(N)=O)cc2C)cc1	6.28	pIC50 [3]: < 3.60; bioavailability [4]: 12.2%; pIC50 [2]: 6.18; clearance [5]: 52.3 mL/min/kg
COc1ccc(-c2ccn(C(CC(=O)O)c3ccccc3)c2-c2ccc(C(N)=O)cc2C)cc1 (stereo not drawn)	5.05	
COc1ccc(-c2ccn(CC(N)C(=O)O)c2-c2ccc(C(N)=O)cc2C)cc1 (stereo not drawn)	< 4.00	
COc1ccc(-c2ccn(-c3cc(F)c(O)c(F)c3)c2-c2ccc(C(N)=O)cc2C)cc1	6.35	
COc1ccc(-c2ccn(C3CCC(C(=O)O)CC3)c2-c2ccc(C(N)=O)cc2C)cc1 (stereo not drawn)	< 4.00	
COc1ccc(-c2ccn(-c3ccc(C(=O)O)nc3)c2-c2ccc(C(N)=O)cc2C)cc1	5.07	
COc1ccc(-c2ccn(-c3ccc(O)nc3)c2-c2ccc(C(N)=O)cc2C)cc1	4.67	
COc1ccc(-c2ccn(-c3ccc(O)c(F)c3)c2-c2ccc(C(N)=O)cc2C)cc1	6.34	
COc1ccc(-c2ccn(C(CC(=O)O)C3CC3)c2-c2ccc(C(N)=O)cc2C)cc1 (stereo not drawn)	< 4.00	
COc1ccc(-c2ccc(CCC(=O)O)n2-c2ccc(C(N)=O)cc2C)cc1		bioavailability [4]: 16.2%; pIC50 [2]: 6.74; clearance [5]: 35.4 mL/min/kg
COc1ccc(-c2ccn(-c3ccc(C(=O)O)cn3)c2-c2ccc(C(N)=O)cc2C)cc1	4.53	
